Laboratory results reported in publication PMC11720011, “Single Disulfide Bond in Host Defense Thanatin Analog Peptides: Antimicrobial Activity, Atomic-Resolution Structures and Target Interactions” (International Journal of Molecular Sciences, 2024).
Values after ≈ are worked out from the molar mass of the structure shown. Residues, ends and D or L forms follow the SMILES beside them.

B1: VF16QK, disulfide-bonded 16-residue thanatin analog peptide (peptide)
peptide: VPIIYCNRRTKKCKRF
HELM: PEPTIDE1{V.P.I.I.Y.C.N.R.R.T.[dK].K.C.K.R.F.[am]}$PEPTIDE1,PEPTIDE1,6:R3-13:R3$$$V2.0; N-terminus assumed
SMILES: CC[C@H](C)[C@H](NC(=O)[C@@H](NC(=O)[C@@H]1CCCN1C(=O)[C@@H](N)C(C)C)[C@@H](C)CC)C(=O)N[C@@H](Cc1ccc(O)cc1)C(=O)N[C@H]1CSSC[C@@H](C(=O)N[C@@H](CCCCN)C(=O)N[C@@H](CCCNC(=N)N)C(=O)N[C@@H](Cc2ccccc2)C(N)=O)NC(=O)[C@H](CCCCN)NC(=O)[C@@H](CCCCN)NC(=O)[C@H]([C@@H](C)O)NC(=O)[C@H](CCCNC(=N)N)NC(=O)[C@H](CCCNC(=N)N)NC(=O)[C@H](CC(N)=O)NC1=O
notes: Analog of thanatin of Podisus maculiventris (21 residues) without its five N-terminal residues; also called VK16QK; source: synthetic peptide; bought: GL Biochem, Shanghai

Key:
[1] = tested on: Escherichia coli ATCC 25922 (EC); type: cell-based; conditions: ATCC 25922, 18 h
Procedure: (§1) Antibacterial activities of the VF16QK and VF16QK^Ser peptides (GL Biochem, Shanghai, China) were determined using the broth dilution method. Bacterial strains of Escherichia coli ATCC 25922 (EC); Salmonella enterica ATCC 14028 (SE); Klebsiella pneumoniae ATCC 13883 (KP); Acinetobacter baumannii ATCC BAA-1798 (AB) Streptococcus pyogenes ATCC 19615 (SP) and Enterococcus faecalis ATCC 29212 (EF) were used for this study.
(§2) Typically, overnight cultures of bacterial cells were grown to mid-log phase and diluted in 2X Mueller Hinton (MH) broth (Millipore-Sigma^TM, Saint Louis, MO, USA) to a final OD600 of 0.002. In a 96-well plate, 100 μL of the diluted bacterial solutions and 100 μL of the VF16QK and VF16QK^Ser peptides in concentrations ranging from 0.5 μM to 8 μM were incubated at 37 °C for 18 h.

[2] = tested on: Klebsiella pneumoniae ATCC 13883 (KP); type: cell-based; conditions: ATCC 13883, 18 h
Procedure: as §1, §2

[3] = tested on: ATCC strains of E. coli, K. pneumoniae, S. enterica, S. pyogenes and E. faecalis; type: cell-based; conditions: 18 h
Procedure: as §1, §2

[4] = tested on: Enterococcus faecalis ATCC 29212 (EF); type: cell-based; conditions: ATCC 29212, 18 h
Procedure: as §1, §2

[5] = tested on: Streptococcus pyogenes ATCC 19615 (SP); type: cell-based; conditions: ATCC 19615, 18 h
Procedure: as §1, §2

[6] = target: T1, LptAm, the periplasmic LPS transport protein of E. coli (Escherichia coli, UniProt P0ADV1); experiment: Isothermal titration calorimetry (ITC) with LptAm; type: binding; conditions: in words
T1 construct: His-tagged LptAm (residues 28–159) of E. coli; His-tag; made in house; host or cells: E. coli BL21
Procedure: Figure 2 Isothermal titration calorimetry (ITC) of binding interactions of VF16QK with (A) LptAm, the periplasmic LPS transport protein of E. coli, and (B) the LPS-outer membrane. LptAm-peptide ITC studies were carried out in 50 mM of sodium phosphate buffer and 150 mM of NaCl at pH 7.0 and 25 °C. LptAm proteins in sample cells were titrated with 2 μL aliquots of peptides and the heat exchange was measured. For LPS–peptide interactions, LPS in sample cells were titrated with 2 μL aliquots of peptides in 10 mM of sodium phosphate buffer, pH 7.0, 37 °C.
The binding interactions of the thanatin peptides VF16QK and VF16QK^Ser with the LPS-outer membrane and LptAm were determined using ITC. LPS and peptide samples were prepared in 10 mM of sodium phosphate buffer, pH 7.0. Typically, twenty injections, or 2.0 μL of peptides (1 mM in syringe), were titrated into the sample cell containing LPS ([…]) at 37 °C with a stirring speed of 750 rpm. […] ITC data were analyzed following single site binding in Microcal origin 5.0 software to determine the association constant (Ka) and change of enthalpy (ΔH). The dissociation constant (Kd), change of free energy (ΔG) and change of entropy (TΔS) were calculated as: Kd = 1/Ka, ΔG = ΔH − TΔS, respectively. […]

[7] = tested on: E. coli cells; experiment: Zeta potential measurements (surface charge neutralization); type: cell-based; conditions: 10 mM sodium phosphate pH 7, peptide up to 32 μM, three replicates, in words
Procedure: (§3) Figure 1 (A) Fluorescence emission spectra of NPN as a function of concentrations of the VF16QK and VF16QK^ser peptides in E. coli cell solutions. 10 μM of fluorescence probes were prepared in 10 mM of sodium phosphate buffer with a fixed bacterial cell density of 0.5. Fluorescence spectra were recorded with an excitation wavelength of 350 nm and emission of 390–450 nm. (B) Plot showing z potential changes of E. coli cells as a function of concentrations, 2 to 32 μM, of the VF16QK and VF16QK peptides.
Zeta potential measurements were performed in a Zeta Sizer Nano ZS (Malvern Instruments, Worcestershire, UK) instrument equipped with a 633 nm He laser. Mid-log phase E. coli cultures were centrifuged at 5000 rpm for 10 min and prepared in 10 mM of sodium phosphate buffer, pH 7. Z potential values of bacterial cell suspension were obtained from 1 to 32 μM of the peptides in zeta cells with gold electrodes. For individual measurement, 100 runs were carried out and three replicates were performed.

[8] = tested on: LPS-outer membrane of E. coli cells; experiment: Outer membrane permeabilization assay (NPN fluorescence); type: cell-based; conditions: E. coli cells OD600 ~0.5, 10 mM sodium phosphate, peptide 1 to 16 µM, excitation 350 nm, emission 390–450 nm; in words
Procedure: as §3
VF16QK and VF16QK^Ser were assessed for their ability to permeabilize the LPS-outer membrane of E. coli cells by use of the fluorescence probe 1-N-phenylnapthylamine (NPN). Bacterial cells were prepared from a mid-log culture in 10 mM of sodium phosphate with an adjusted OD600 ~ 0.5. A basal fluorescence of […] NPN in bacterial suspension, in absence of peptide, was measured followed by sequential additions of peptides from 1 to 16 µM. Fluorescence experiments were conducted in a Cary Eclipse spectrophotometer (Varian, Palo Alto, CA, USA) using a 0.1 cm quartz cuvette. An excitation wavelength of 350 nm and emission was recorded from 390–450 nm.

[9] = target: T2, LptAm, truncated functional deletion variant of the periplasmic LPS transport protein LptA of E. coli (E. coli, UniProt P0ADV1 28-159); experiment: ITC; peptide (250 uM in syringe, 20 injections of 2 uL) titrated into LptAm in the sample cell (25 mM [sic]); 50 mM sodium phosphate, 150 mM NaCl, pH 7.0, 25 °C; single site binding fit; conditions: both partners purified
T2 construct: LptA of E. coli, residues 28-159 (LptAm); no removal of the His tag is told; also called His-tagged LptAm; source: E. coli BL21, purified (Ni-NTA, size-exclusion chromatography)
T2 sequence (looked up): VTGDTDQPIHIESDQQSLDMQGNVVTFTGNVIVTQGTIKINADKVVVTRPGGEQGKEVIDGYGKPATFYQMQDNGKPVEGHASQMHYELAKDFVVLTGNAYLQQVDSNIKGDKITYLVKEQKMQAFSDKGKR

Molecule | MIC, EC [1] [µM] | MIC, KP [2] [µM] | MIC values over Gram-negative and Gram-positive bacterial strains [3] [µM] | MIC, EF [4] [µM] | MIC, SP [5] [µM] | nature of binding to LptAm (heat of exchange) [6] | neutralization of surface charge (zeta potential) [7] | NPN fluorescence emission (LPS-outer membrane permeabilization) [8] | Kd [9] [nM] | dH [9] [kcal/mol]
CC[C@H](C)[C@H](NC(=O)[C@@H](NC(=O)[C@@H]1CCCN1C(=O)[C@@H](N)C(C)C)[C@@H](C)CC)C(=O)N[C@@H](Cc1ccc(O)cc1)C(=O)N[C@H]1CSSC[C@@H](C(=O)N[C@@H](CCCCN)C(=O)N[C@@H](CCCNC(=N)N)C(=O)N[C@@H](Cc2ccccc2)C(N)=O)NC(=O)[C@H](CCCCN)NC(=O)[C@@H](CCCCN)NC(=O)[C@H]([C@@H](C)O)NC(=O)[C@H](CCCNC(=N)N)NC(=O)[C@H](CCCNC(=N)N)NC(=O)[C@H](CC(N)=O)NC1=O [VF16QK] (HELM PEPTIDE1{V.P.I.I.Y.C.N.R.R.T.[dK].K.C.K.R.F.[am]}$PEPTIDE1,PEPTIDE1,6:R3-13:R3$$$V2.0) | 1 to 4 | 1 to 2 | 1 to 4 | 1 (≈ 2.02 µg/mL) | 1 (≈ 2.02 µg/mL) | – | – | – | – | –
CC[C@H](C)[C@H](NC(=O)[C@@H](NC(=O)[C@@H]1CCCN1C(=O)[C@@H](N)C(C)C)[C@@H](C)CC)C(=O)N[C@@H](Cc1ccc(O)cc1)C(=O)N[C@@H](CO)C(=O)N[C@@H](CC(N)=O)C(=O)N[C@@H](CCCNC(=N)N)C(=O)N[C@@H](CCCNC(=N)N)C(=O)N[C@H](C(=O)N[C@H](CCCCN)C(=O)N[C@@H](CCCCN)C(=O)N[C@@H](CO)C(=O)N[C@@H](CCCCN)C(=O)N[C@@H](CCCNC(=N)N)C(=O)N[C@@H](Cc1ccccc1)C(N)=O)[C@@H](C)O [VF16QK^Ser] (HELM PEPTIDE1{V.P.I.I.Y.S.N.R.R.T.[dK].K.S.K.R.F.[am]}$$$$V2.0; N-terminus and C-terminus assumed) | – | – | > 16 | – | – | endothermic binding | less effective | significantly diminished LPS-outer membrane permeabilization | – | –
B1 | – | – | – | – | – | – | – | – | 400 | -10.2
